{"source": "patent US6734211B1", "about": "“Compositions and methods for promoting nerve regeneration” (Oregon Health & Sciences University, priority 1999, dated 2004)", "key": {"sciatic nerve": {"test_system": "sciatic nerve", "conditions": "rat, following a sciatic nerve crush lesion; cited from earlier work"}, "[1]": {"test_system": "hippocampal neurons of FKBP-12 knockout mice", "experiment": "Axonal length in primary neuronal hippocampal cultures from FKBP-12 knockout mice", "assay_type": "cell-based", "protocol": "(§1) FKBP-12 knockout mice (Shou, et al., Nature 391:489, 1998) were used to test whether FKBP-12 is necessary for FK506's ability to increase nerve elongation. Such mice usually die from severe cardiomyopathy between embryonic day 14.5 (E14.5) and birth, consistent with the known association between FKBP-12 and calcium release channels. […] Primary neuronal hippocampal cultures were prepared from E18.5 homozygote FKBP-12 knockout and wild-type mice."}, "[2]": {"test_system": "hippocampal neurons of wild-type mice", "experiment": "Axonal length in primary neuronal hippocampal cultures from wild-type mice", "assay_type": "cell-based", "protocol": "as §1"}, "[3]": {"test_system": "SH-SY5Y human neuroblastoma cells", "experiment": "Neurite outgrowth of SH-SY5Y cells in the presence of NGF", "assay_type": "cell-based", "conditions": "for Mean Length of Top 50% of Neuritic Processes: 168 hours; for neurite outgrowth, effect of the compound: with NGF, concentration dependence", "protocol": "This Example illustrates that FK506 and geldanamycin promote nerve regeneration by a common mechanism. SH-SY5Y human neuroblastoma cells were maintained in DMEM medium (GIBCO) supplemented with 10% fetal calf serum (SIGMA), 50 IU/mL penicillin, and […] streptomycin (GIBCO) at 37° C. in 7% CO2. Cells were plated in six-well plates at 1×10^6 cells/well and treated with […] aphidicolin (SIGMA). At five days, cells were washed, treated with nerve growth factor (NGF) (Boehringer Mannheim, Indianapolis, Ind.) at 10 ng/mL ([…]) (Calbiochem-Novabiochem Int'l., La Jolla, Calif.) and/or geldanamycin (0.1, 1, and 10 nM) (Calbiochem-Novabiochem, La Jolla, Calif.) dissolved in the DMEM medium. Media was changed at 96 hours and replaced with fresh media containing the compounds (NGF plus FK506 and/or geldanamycin) for an additional 72 hours (total time, 168 hours). The top 50% of axonal lengths were selected for statistical analysis. All experiments were run in duplicate wells and repeated at least twice for reproducibility.\n(§2) For analysis of neurite process length of cells, 20 fields per well were randomly photographed at 72 and 168 hours. Neurite lengths were measured on photographic prints using a Houston Instrument HI-PAD digitizing tablet connected to an IBM XT computer with appropriate software (Bioquant IV, R&M Biometrics, Nashville, Tenn.); only those processes greater than two times the cell body length were measured. Data from identically treated wells were not different and were therefore combined. […] Histograms were compared using a Mann-Whitney U test, which makes no assumptions about the shape of the distribution.\nNeuroblastoma SH-SY5Y cells were used to examine human neurite outgrowth in vitro and to explore which neuroimmunophilin mediates the effect."}, "hippocampal cells": {"test_system": "hippocampal cells", "experiment": "Neurite outgrowth of hippocampal cells after 72 hours", "assay_type": "cell-based", "protocol": "as §2\nUtilizing the in vitro assay described in Example 2, the effect of radicicol on neurite outgrowth was investigated. Hippocampal cells were treated with radicicol at a concentration of 0.1 ng/mL and at a concentration of 10 ng/mL. The neurite outgrowth for radicicol treated cells was compared to the outgrowth for untreated cells and for cells treated with 10 ng/mL of NGF.\nUtilizing the in vitro assay described in Example 2, the effect of heat alone or in combination with various compounds on neurite outgrowth was investigated. […] FIG. 5 also illustrates that a combination of heat treatment and treatment with both NGF, and Hsp-90 antibodies is not as effective as the combination of heat and NGF treatment. […]"}, "[4]": {"conditions": "geldanamycin 10 nM co-treatment"}}, "data": [{"molecule": "C=CC[C@@H]1/C=C(\\C)C[C@H](C)C[C@H](OC)[C@H]2O[C@@](O)(C(=O)C(=O)N3CCCC[C@H]3C(=O)O[C@H](/C(C)=C/[C@@H]3CC[C@@H](O)[C@H](OC)C3)[C@H](C)[C@@H](O)CC1=O)[C@H](C)C[C@@H]2OC", "note": "[FK506]", "values": [{"measurement": "functional recovery and axonal regeneration", "setting": "sciatic nerve", "value": "speed functional recovery and axonal regeneration in the rat in a dose-dependent manner"}, {"measurement": "Mean axonal lengths of hippocampal neurons", "setting": "[1]; FK506-treated cultures, FKBP-12 knockout, mean±S.E.M.", "value": "264±18.2"}, {"measurement": "increase over non-treated values", "setting": "[1]; FKBP-12 knockout cells", "value": 30, "unit": "%"}, {"measurement": "Mean axonal lengths of hippocampal neurons", "setting": "[2]; FK506-treated cultures, wild-type, mean±S.E.M.", "value": "276±11.1"}, {"measurement": "increase over non-treated values", "setting": "[2]; wild-type cells", "value": 26, "unit": "%"}, {"measurement": "Mean Length of Top 50% of Neuritic Processes", "setting": "[3]; FK506 10 nM + NGF 10 ng/mL", "value": 156, "unit": "µm"}, {"measurement": "neurite outgrowth (cumulative histograms of neurite lengths)", "setting": "[3]; FK506 10 pM-10 nM", "value": "increases neurite outgrowth"}, {"measurement": "neurite outgrowth (cumulative histograms of neurite lengths)", "setting": "[3]; FK506 100 nM", "value": "less effective"}, {"measurement": "neurite outgrowth (cumulative histograms of neurite lengths)", "setting": "[3]; FK506 1000 nM or greater", "value": "neurite outgrowth was inhibited"}, {"measurement": "neurite outgrowth, effect of the compound", "setting": "[3]", "value": "stimulate neurite outgrowth in a concentration dependent manner"}]}, {"molecule": "COC1=C2C[C@@H](C)C[C@H](OC)[C@H](O)[C@@H](C)/C=C(\\C)[C@H](OC(N)=O)[C@@H](OC)/C=C\\C=C(/C)C(=O)NC(=CC1=O)C2=O", "note": "[Geldanamycin, geldanamycin]", "values": [{"measurement": "Mean Length of Top 50% of Neuritic Processes", "setting": "[3]; geldanamycin 1 nM + NGF 10 ng/mL", "value": 128, "unit": "µm"}, {"measurement": "Mean Length of Top 50% of Neuritic Processes", "setting": "[3]; geldanamycin 10 nM + NGF 10 ng/mL", "value": 110, "unit": "µm"}, {"measurement": "effect on neurite outgrowth promotion by FK506, dexamethasone or β-estradiol", "setting": "[3]; geldanamycin 0.1 nM co-treatment", "value": "less effective in inhibiting the neurite outgrowth-promoting effect of all these compounds"}, {"measurement": "effect on neurite outgrowth promotion by FK506, dexamethasone or β-estradiol", "setting": "[3]; [4]", "value": "inhibited neurite outgrowth promotion by FK506 , dexamethasone or β-estradiol"}, {"measurement": "effect on neurite outgrowth promotion by FKBP-52 antibody", "setting": "[3]; [4]", "value": "enhanced the neurite outgrowth-promoting effect of the FKBP-52 antibody"}, {"measurement": "neurite outgrowth", "setting": "[3]; geldanamycin 0.1-10 nM alone", "value": "increased neurite outgrowth in a concentration-dependent fashion"}, {"measurement": "neurite outgrowth, effect of the compound", "setting": "[3]", "value": "stimulate neurite outgrowth in a concentration dependent manner"}]}, {"molecule": "COc1cccc(-c2cc(=O)c3ccccc3o2)c1N", "note": "[PD 098059]", "values": [{"measurement": "effect on neurite outgrowth by NGF and FK-506 (FIG. 6)", "setting": "hippocampal cells; 2 concentrations", "value": "blocks neurite outgrowth by NGF and FK-506 in a concentration dependent fashion"}, {"measurement": "effect on neurite outgrowth by radicicol (FIG. 7)", "setting": "hippocampal cells; 2 concentrations", "value": "blocks the action of radicicol in a concentration dependent fashion"}, {"measurement": "effect on neurite outgrowth by radicicol (FIG. 7)", "setting": "hippocampal cells; highest concentration", "value": "almost completely blocks activity"}]}, {"molecule": "[Na+].[Na+].[O]=[Mo](=[O])([O-])[O-]", "note": "[molybdate, sodium molybdate]", "values": [{"measurement": "effect on neurite outgrowth promotion by FK506", "setting": "[3]; molybdate 20 mM", "value": "reduced the neurite outgrowth promotion elicited by FK506"}, {"measurement": "effect on neurite outgrowth promotion by FKBP-52 antibody", "setting": "[3]; molybdate 20 mM", "value": "inhibited the neurite outgrowth-promoting effects of FKBP-52 antibody"}, {"measurement": "effect on neurite outgrowth promotion by β-estradiol and geldanamycin", "setting": "[3]; molybdate 20 mM", "value": "completely [Mann-Whitney U test (α=0.05)] inhibited the neurite outgrowth-promoting effect of β-estradiol and geldanamycin"}, {"measurement": "neurite outgrowth-promoting effect of molybdate in the presence of dexamethasone", "setting": "[3]; molybdate 20 mM", "value": "significantly [Mann-Whitney U test (α=0.05)] reduced compared to molybdate alone"}, {"measurement": "neurite outgrowth", "setting": "[3]; molybdate 20 mM itself", "value": "agonist effect on neurite outgrowth"}]}, {"molecule": "C[C@@H]1C[C@H]2O[C@@H]2/C=C\\C=C\\C(=O)Cc2c(Cl)c(O)cc(O)c2C(=O)O1", "note": "[radicicol]", "values": [{"measurement": "neurite outgrowth (cumulative histogram, FIG. 3)", "setting": "hippocampal cells; radicicol 0.1 ng/mL and 10 ng/mL vs NGF 10 ng/mL", "value": "more effective than NGF alone in stimulating outgrowth"}]}, {"molecule": "C[C@]12CC[C@@H]3c4ccc(O)cc4CC[C@H]3[C@@H]1CC[C@@H]2O", "note": "[β-estradiol]", "values": [{"measurement": "neurite outgrowth compared with dexamethasone", "setting": "[3]; 50 nM each", "value": "greater positive effect on neurite outgrowth than dexamethasone (50 nM)"}, {"measurement": "neurite outgrowth, effect of the compound", "setting": "[3]", "value": "significantly increased neurite outgrowth in SH-SY5Y cells in a concentration-dependent manner"}]}, {"molecule": "NGF: nerve growth factor (Boehringer Mannheim) (protein, UniProt P01139 122-241, looked up, Beta-nerve growth factor) Beta-nerve growth factor: SSTHPVFHMGEFSVCDSVSVWVGDKTTATDIKGKEVTVLAEVNINNSVFRQYFFETKCRASNPVESGCRGIDSKHWNSYCTTTHTFVKALTTDEKQAAWRFIRIDTACVCVLSRKATRRG", "values": [{"measurement": "neurite outgrowth (cumulative histogram, FIG. 4)", "setting": "hippocampal cells; NGF in combination with heat", "value": "more effective than either heat or NGF treatment alone in stimulating neurite outgrowth"}, {"measurement": "Mean Length of Top 50% of Neuritic Processes", "setting": "[3]; NGF 10 ng/mL alone", "value": 108, "unit": "µm"}]}]}
